In the OPERA property sets (Mansouri et al. 2018):

Conditions: not given

Row | Compound | log10 Koc (L/kg) | melting point [°C] | ready biodegradability | boiling point [°C] | log10 vapour pressure (mmHg) | log10 Henry constant (atm·m³/mol)
1 | CCCCN(C)C(=O)Nc1ccc(Cl)c(Cl)c1 | 3.4 | 102 | not readily biodegradable |  |  | 
2 | CCCCCCCCCCCCCCCc1ccccc1 |  | 22 |  | 373 | -5.14 | 
3 | CC(C)NC(=O)N1CC(=O)N(c2cc(Cl)cc(Cl)c2)C1=O | 2.85 | 136 |  |  | -8.43 | -8.51
4 | Clc1cc(Cl)c2oc3cc(Cl)c(Cl)cc3c2c1 |  | 202 |  |  | -7.71 | 
5 | CCN(C)C |  | -140 |  | 36.5 |  | 
6 | CCCCCCCCCCO | 2.59 | 6.9 | readily biodegradable | 231 | -2.07 | -4.49
7 | CC=CC=CC(=O)OCC |  |  |  | 196 |  | 
8 | CC1CCCSC1 (stereo not given) |  | -60 |  | 158 |  | 
9 | O=C1c2ccccc2C(=O)C1C(=O)C(c1ccccc1)c1ccccc1 |  | 146 |  |  | -9.99 | 
10 | Cc1cnc2c(C(=O)O)c(Cl)ccc2c1 |  | 244 |  |  |  | 
11 | CC(=O)Oc1ccc(C)cc1C |  |  |  | 226 |  | 
12 | CCOC(=O)C(=O)CC(C)=O |  | 18 |  | 214 |  | 
13 | Cc1c(C)c([N+](=O)[O-])c(C)c(C)c1[N+](=O)[O-] |  | 212 |  |  |  | 
14 | CNC(=O)OCc1cccc(COC(=O)NC)n1 |  | 136 |  |  |  | 
15 | O=Cc1ccc(O)cc1O |  | 135 |  |  |  | 
16 | Cc1ccco1 |  | -87.5 |  | 65 | 2.19 | 
17 | CC(C)C(C)O (stereo not given) |  |  |  | 112 | 0.961 | 
18 | O=Nc1c(O)ccc2ccccc12 |  | 110 |  |  |  | 
19 | C[Si](C)(C)O[Si](C)(C)O[Si](C)(C)C |  | -80 |  | 153 | 0.524 | 1.49
20 | Nc1ccncn1 |  | 155 |  |  |  | 

Row | Compound | log10 Koc (L/kg) | melting point [°C] | ready biodegradability | boiling point [°C] | log10 vapour pressure (mmHg) | log10 Henry constant (atm·m³/mol)
21 | CN(C)c1ccncc1 |  | 112 |  |  |  | 
22 | CCOS(=O)(=O)Cl |  |  |  | 152 |  | 
23 | CC(=O)c1cnccn1 |  | 77 |  |  |  | 
24 | C#C[C@]1(OC(C)=O)CC[C@H]2[C@@H]3CCC4=C/C(=N/O)CC[C@@H]4[C@H]3CC[C@@]21CC |  | 216 |  |  |  | 
25 | O=C(CCl)CCl |  | 45 |  | 173 | -0.202 | 
26 | O=[N+]([O-])c1cc(F)c(F)cc1F |  | -11 |  | 194 |  | 
27 | Cc1cc(N)ccc1Cl |  | 83.5 | not readily biodegradable | 241 |  | 
28 | CC(Cl)(Cl)CCl |  |  |  | 124 |  | 
29 | Cc1ccccc1CC=O |  |  |  | 221 |  | 
30 | CCCCCCCCCC[N+](C)(C)Cc1ccccc1 |  |  | not readily biodegradable |  |  | 
31 | CC(C)NCCCC1(C(N)=O)c2ccccc2-c2ccccc21 |  | 94.5 |  |  |  | 
32 | Oc1ccc(Br)c2cccnc12 |  | 124 |  |  |  | 
33 | CC(Br)CBr (stereo not given) |  | -55.5 |  | 142 | 0.894 | 
34 | CC1(C)OC(=O)CC1CC(=O)O (stereo not given) |  | 90 |  |  |  | 
35 | CC(O)C(C)CO (stereo not given) |  |  |  | 200 |  | 
36 | O=C(O)[C@H]1CC[C@H]1C(=O)O |  | 131 |  |  |  | 
37 | Cc1cccc(CBr)c1 |  |  |  | 212 |  | 
38 | Cc1cc(C(C)(C)C)ccc1O |  | 27.5 |  | 237 | -1.55 | 
39 | COC(=O)C[C@@H](C)C(=O)OC |  |  |  | 196 |  | 
40 | O=S1(=O)CC=CC1 |  | 64.5 |  |  |  | 

Row | Compound | log10 Koc (L/kg) | melting point [°C] | ready biodegradability | boiling point [°C] | log10 vapour pressure (mmHg) | log10 Henry constant (atm·m³/mol)
41 | CCc1cccc(CC)c1N(COC)C(=O)CCl | 2.28 | 40 | not readily biodegradable |  |  | -8.08
42 | Cc1ccc(O)cc1 | 2.7 | 35.5 | readily biodegradable | 202 | -0.959 | -6
43 | O=C(OC1CCCCC1)c1ccccc1C(=O)OC1CCCCC1 |  | 66 | readily biodegradable |  | -6.06 | 
44 | CCC(=O)Nc1ccc(Cl)c(Cl)c1 | 2.17 | 92 | readily biodegradable | 351 | -6.04 | 
45 | C=CCCCCCCCCCCCCCCCCCCCC |  | 38 |  | 367 |  | 
46 | CCCCCCCCCCCCCC(O)CC (stereo not given) |  | 50 |  |  |  | 
47 | Cc1ccccc1CN |  | -30 |  | 206 |  | 
48 | O[C@H]1CC[C@H](O)CC1 |  | 143 |  |  |  | 
49 | CCCC(=O)N(CC)CC |  |  |  | 206 |  | 
50 | CCCCC/C=C\C/C=C\C/C=C\C/C=C\CCCC(=O)O |  | -49.5 |  |  |  | 
51 | C[C@H]1CCC(=O)N1 |  | 43 |  | 248 |  | 
52 | COC(=O)c1c(Cl)c(Cl)c(C(=O)OC)c(Cl)c1Cl | 3.7 | 155 | not readily biodegradable | 365 | -5.6 | 
53 | NC(=S)c1c(Cl)cccc1Cl | 2.26 | 152 |  |  | -6 | 
54 | COC1=CC(=O)C=C(OC)C1=O |  | 256 |  |  |  | 
55 | Cc1ccc(C(=O)C(C)CN2CCCCC2)cc1 (stereo not given) |  | 176 |  |  |  | 
56 | O=S(=O)(O)C(F)(F)C(F)(F)C(F)(F)C(F)(F)C(F)(F)C(F)(F)F |  |  |  | 238 |  | 
57 | CC=C(CC)C(C)C(=O)CC (stereo not given) |  | 74.5 |  |  |  | 
58 | CC(C)CCC[C@@H](C)[C@H]1CC[C@H]2[C@@H]3CCC4=C[C@@H](O)CC[C@]4(C)[C@H]3CC[C@]12C |  | 132 |  |  |  | 

Same assay, conditions: fish

Row | Compound | log10 BCF | log10 biotransformation half-life (days)
59 | CC(C)C(O)C(C)(C)CO (stereo not given) | 0 | -1.34
60 | CCN(CC)C(=O)c1cccc(C)c1 | 0.38 | 
61 | CCCCC(C)CCCC(C)C (stereo not given) |  | 0.32
62 | CN(C)P(=O)(N(C)C)N(C)C | -0.3 | 
63 | C=CCCCCCCC | 3.17 | 0.52
64 | CC(C)NC(=O)N1CC(=O)N(c2cc(Cl)cc(Cl)c2)C1=O | 2.53 | 
65 | CCc1cccc(CC)c1N(COC)C(=O)CCl | 1.12 | -1.1
66 | CCC(=O)Nc1ccc(Cl)c(Cl)c1 | 1.84 | 
67 | Cc1ccccc1CN | 0.66 | 
